Data reported in US20240174625A1, “COMPOSITIONS AND METHODS FOR TREATING TAUOPATHIES” (The Regents of the University of California, priority 2021, published 2024).

Tests used:
NPEPPS = target: T1, NPEPPS (Homo sapiens, UniProt P55786); test: Cell-based NPEPPS activity assay (Q-AMC fluorescence); details: log10 transformed; EC50 = concentration that elevates 50% NPEPPS activity (150% of DMSO baseline); HEK293T cells
T1 construct: endogenous in cells; host or cells: HEK293T
Procedure: HEK293T cells (AATC) were maintained in a complete media containing DMEM (Gibco 11995-065) in the presence of 10% fetal bovine serum (FBS, Gibco 10082147), […] penicillin and 50 μg/ml streptomycin (Gibco 15140163) at 37° C. with 5% CO2. NPEPPS activity assay was conducted in a fresh-prepared minimal medium containing essential amino acids, vitamin, AlbuMax (Invitrogen 11021-029) in 1×HBS buffer. Black wall, clear bottom 384-well assay plates (Greiner EK-30092) were coated with poly-L-ornithine (0.1 mg/ml, Sigma P3655) overnight and washed once with 1×PBS. 15 μl minimal medium was then added to each well. 250 nL of compounds dissolved in OmniSolve methylsulfoxide (dimethyl sulfoxide, DMSO, Sigma MX1456P) were pinned to each well via Biomek FX^P Liquid Handling Automation (Beckman Coulter) from compound source plates, i.e., either pre-made compound libraries or JMM compounds (20-step, 2-fold dilution) dissolved in OmniSolve DMSO prepared via Biomek automation in 384-well clear V-bottom polypropylene microplates (ThermoScientific 50-823-639). Cells were harvested, resuspended in minimal medium, and seeded at 16,500 cells/15 μl/well in the 384-well assay plates. 24 hrs later, 30 μl 200 μM H-Gln-AMC hydrobromide salt (Q-AMC, Bachem #I-1175) in 1×HBS containing 0.1% DMSO was added into each well. The fluorescent signal at excitation/emission wavelengths of 360/460 nm was measured immediately upon Q-AMC addition and 3 hrs post-Q-AMC. The change in fluorescence is measured as a readout of NPEPPS activity.
To identify small molecules that either increase NPEPPS levels or NPEPPS activity, a cell-based NPEPPS activity assay amenable to high-throughput screening (HTS) by adapting a fluorescent peptidase activity assay^2 was developed. Since NPEPPS is one of the only aminopeptidases capable of cleaving glutamine-peptide bonds^3 and the major aminopeptidase responsible for degradation of poly-glutamine sequences in the brain^4, a fluorogenic compound, glutamine-7-amino-4-methylcoumarin (Q-AMC), was selected as a substrate to measure NPEPPS activity. The peptide bond of Q-AMC is hydrolyzed by NPEPPS to release glutamine and a fluorescent product, 7-amino-4-methylcoumarin (AMC), when Q-AMC is added directly to the cell culture media. This change in fluorescence is measured as a readout of aminopeptidase activity (FIG. 2A). Overexpression of NPEPPS in HEK293T cells results in a significant increase in fluorescence, whereas knock-down or chemical inhibition of NPEPPS decrease fluorescence change (FIG. 2B-D), validating that the changes in fluorescence observed in the Q-AMC-based assay directly correlate with changes in NPEPPS activity. A high-throughput (HTS) screen (201,845 compounds) was conducted at the UCLA MSSR core (FIG. 2E). Follow-up assays and chemical clustering identified three series of compounds with distinct chemical clusters (FIG. 2F).
(§1) To investigate the effects of JMM compounds that enhance NPEPPS activity and assess their cellular toxicity, 139 compounds in the JMM series (i.e., JMM001-JMM139) were tested in dose responses (20-step, 2-fold dilution) using NPEPPS activity and viability assays in HEK293T cells. 76 compounds harboring different modifications produce concentration-dependent enhancement on NPEPPS activity compared to DMSO control (FIG. 4). […] A therapeutic index (TI, a ratio of IC50 over EC50) is used to evaluate the relative safety profiles of the compounds. […] 16 JMM compounds show both improved potency and reduced toxicity (EC50<10 μM and TI>10, Table 1).

HEK293T cells = test: Cell viability assay (CellTiter Glo); format: cell-based, human; details: for IC50: Homo sapiens, HEK-293T, log10 transformed, IC50 = concentration that suppresses 50% cell viability, HEK293T cells; for Therapeutic index: ratio of IC50 (cell viability) over EC50 (NPEPPS activity)
Procedure: HEK293T cells (AATC) were maintained in complete media and cell viability assay was conducted in a fresh-prepared minimal medium containing essential amino acids, vitamin, AlbuMax (Invitrogen 11021-029) in 1×HBS buffer. White 384-well assay plates (Greiner EK-30080) were coated with poly-L-ornithine (0.1 mg/ml) overnight and washed once with 1×PBS. 15 μl minimal medium was then added to each well. 250 nl of compounds dissolved in OmniSolve DMSO were pinned to each well via Biomek FX^P Liquid Handling Automation from compound source plates. Cells were harvested, resuspended in minimal medium, and seeded at 16,500 cells/15 μl/well in the 384-well assay plates. 24 hrs later, 25 μl/well CellTiter Glo reagent (Promega G7572) was added into each well, and luminescence (0.5 second integration time) was acquired following manufacture's protocol. Luminescence count normalized to DMSO control is used as a readout of cell viability.
as §1

T1 sequence (P55786 whole entry): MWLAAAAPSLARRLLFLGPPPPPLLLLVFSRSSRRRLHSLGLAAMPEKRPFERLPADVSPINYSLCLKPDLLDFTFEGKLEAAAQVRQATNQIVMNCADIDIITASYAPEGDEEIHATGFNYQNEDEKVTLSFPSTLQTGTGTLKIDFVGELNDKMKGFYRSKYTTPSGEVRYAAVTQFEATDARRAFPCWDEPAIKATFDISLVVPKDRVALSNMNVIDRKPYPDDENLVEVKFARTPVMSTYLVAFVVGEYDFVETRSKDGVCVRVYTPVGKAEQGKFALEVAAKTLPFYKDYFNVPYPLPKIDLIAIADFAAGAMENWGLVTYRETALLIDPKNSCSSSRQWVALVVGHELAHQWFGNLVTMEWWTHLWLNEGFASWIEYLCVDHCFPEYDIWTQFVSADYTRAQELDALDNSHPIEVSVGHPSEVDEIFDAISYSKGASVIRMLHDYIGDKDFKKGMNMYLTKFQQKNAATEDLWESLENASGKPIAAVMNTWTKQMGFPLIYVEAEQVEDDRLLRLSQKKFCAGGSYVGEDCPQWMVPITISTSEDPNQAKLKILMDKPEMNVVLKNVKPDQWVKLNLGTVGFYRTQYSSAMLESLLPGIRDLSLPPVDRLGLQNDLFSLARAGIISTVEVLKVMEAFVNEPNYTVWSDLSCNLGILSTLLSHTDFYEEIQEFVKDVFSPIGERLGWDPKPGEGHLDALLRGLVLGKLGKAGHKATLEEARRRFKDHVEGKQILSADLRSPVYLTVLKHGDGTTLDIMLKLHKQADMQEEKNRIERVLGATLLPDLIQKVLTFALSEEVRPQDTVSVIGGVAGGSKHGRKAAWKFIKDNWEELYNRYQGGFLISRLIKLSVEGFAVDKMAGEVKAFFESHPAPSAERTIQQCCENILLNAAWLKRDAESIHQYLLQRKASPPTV

| Structure (SMILES) | EC50 (NPEPPS) [µM] | IC50 (HEK293T cells) [µM] | Therapeutic index (HEK293T cells) |
| --- | --- | --- | --- |
| CC(Nc1nsc2ccccc12)c1ccccc1 (stereo not drawn) [JMM075] | 200 | 132 | 0.65 |
| FC(F)(F)c1ccc(CNc2nsc3ccccc23)c(C(F)(F)F)c1 [JMM061] | 10.5 | 72.4 | 6.85 |
| COc1ccc(CNc2nsc3cccc(OC)c23)cc1OC [JMM026] | 41.7 | 129 | 3.05 |
| COc1ccc(CN(C)c2nsc3ccc(OC)cc23)cc1 [JMM100] | 79.4 | 126 | 1.56 |
| COc1ccc(CNc2nsc3c(Br)cccc23)cc1OC [JMM041] | 105 | 245 | 2.37 |
| COc1ccc(CNc2ncccn2)cc1OC [JMM048] | 525 | 562 | 1.09 |
| FC(F)(F)Oc1ccc(CNc2nsc3ccccc23)cc1 [JMM054] | 123 | 132 | 1.08 |
| c1ccc(COc2ccc(CNc3nsc4cnccc34)cc2)cc1 [JMM077] | 6.46 | 61.7 | 9.60 |
| c1ccc(COc2ccc3snc(NCc4ccc(Oc5ccccc5)cc4)c3c2)cc1 [JMM115, 5-(Benzyloxy)-N-(4-phenoxybenzyl)benzo[d]isothiazol-3-amine] | 44.7 | 263 | 5.83 |
| c1ccc(COc2ccc3snc(NCc4ccc(OCC5CCCCC5)cc4)c3c2)cc1 [JMM127, 5-(Benzyloxy)-N-(4-(cyclohexylmethoxy)benzyl)benzo[d]isothiazol-3-amine] | 11.5 | 15.8 | 1.38 |
| Fc1cccc2c(NCc3ccccc3C(F)(F)F)nsc12 [JMM056] | 34.7 | 81.3 | 2.34 |
| Fc1ccccc1COc1ccc(CNc2nsc3ccc(OCc4ccccc4)cc23)cc1 [JMM118, 5-(Benzyloxy)-N-(4-((2-fluorobenzyl)oxy)benzyl)benzo[d]isothiazol-3-amine] | 25.7 | 15.5 | 0.60 |
| FC(F)(F)c1ccc(CNc2nsc3ccc(OCc4ccccc4)cc23)cc1 [JMM066] | 6.46 | 174 | 27.03 |
| FC(F)(F)c1ccc(COc2ccc(CNc3nsc4ccccc34)cc2)cc1 [JMM031] | 7.41 | 77.6 | 10.38 |
| FC(F)(F)Sc1ccc(CNc2nsc3ccccc23)cc1 [JMM081] | 6.31 | 66.1 | 10.45 |
| c1ccc(CNc2nsc3ccccc23)nc1 [JMM058] | 105 | 741 | 7.17 |
| Brc1ccc(CNc2nsc3ccccc23)cc1 [JMM016] | 126 | 47.9 | 0.38 |
| COc1ccc(CNc2nsc3ccc(OCc4ccccc4)cc23)cc1 [JMM099] | 46.8 | 34.7 | 0.74 |
| FC(F)(F)c1cccc(CNc2nsc3ccccc23)c1 [JMM032] | 50.1 | 3090 | 62.09 |
| FC(F)(F)Oc1ccccc1CNc1nsc2ccccc12 [JMM055] | 52.5 | 126 | 2.43 |
| CN(Cc1ccc(Cl)c(Cl)c1)c1nsc2ccc(OCc3ccccc3)cc12 [JMM093] | 5.01 | 20.4 | 4.06 |

| Structure (SMILES) | EC50 (NPEPPS) [µM] | IC50 (HEK293T cells) [µM] | Therapeutic index (HEK293T cells) |
| --- | --- | --- | --- |
| COc1ccc(C(=O)Nc2nsc3ccccc23)cc1 [JMM004] | 407 | 372 | 0.90 |
| c1ccc(CNc2nsc3ccccc23)cc1 [JMM009] | 129 | 224 | 1.76 |
| Fc1ccc(CNc2nsc3ccccc23)cc1 [JMM011] | 316 | 389 | 1.25 |
| c1ccc(COc2ccc(CNc3nsc4ccccc34)cc2)cc1 [JMM014] | 12.9 | 22.4 | 1.75 |
| Clc1ccc(C(Nc2nsc3ccccc23)c2ccc(Cl)cc2)cc1 [JMM076] | 9.77 | 20 | 2.03 |
| Brc1ccc(COc2ccc(CNc3nsc4ccc(OCc5ccccc5)cc34)cc2)cc1 [JMM113, 5-(Benzyloxy)-N-(4-((4-bromobenzyl)oxy)benzyl)benzo[d]isothiazol-3-amine] | 4.47 | 18.6 | 4.18 |
| Fc1cc(Cl)ccc1CNc1nsc2ccccc12 [JMM022] | 186 | 6460 | 34.72 |
| CN(Cc1cccc2ccccc12)c1nsc2ccccc12 [JMM110, N-Methyl-N-(naphthalen-1-ylmethyl)benzo[d]isothiazol-3-amine] | 42.7 | 229 | 5.40 |
| FC(F)(F)c1ccc(CNc2nsc3ncccc23)cc1 [JMM059] | 67.6 | 120 | 1.78 |
| CN(Cc1ccc(OCc2ccc(Cl)c(Cl)c2)cc1)c1nsc2ccc(OCc3ccccc3)cc12 [JMM109, 5-(Benzyloxy)-N-(4-((3,4-dichlorobenzyl)oxy)benzyl)-N-methylbenzo[d]isothiazol-3-amine] | 4.07 | 60.3 | 14.99 |
| C#Cc1cccc2c(NCc3ccc(C(F)(F)F)cc3)nsc12 [JMM064] | 30.2 | 69.2 | 2.30 |
| COc1ccc(CNc2noc3ccccc23)cc1OC [JMM040] | 251 | 251 | 1.00 |
| COc1ccc(CCNc2nsc3ccccc23)cc1OC [JMM020] | 251 | 120 | 0.48 |
| FC(F)(F)c1ccc(CNc2n[nH]c3ccccc23)cc1 [JMM038] | 100 | 105 | 1.06 |
| CN(C)c1ccc(CNc2nsc3ccccc23)cc1 [JMM019] | 240 | 195 | 0.82 |
| COc1ccc(CNc2nsc3ccc(OC)cc23)cc1 [JMM097] | 398 | 229 | 0.57 |
| C[C@@H](Nc1nsc2ccccc12)c1cccc2ccccc12 [JMM102] | 162 | 417 | 2.54 |
| COc1ccc(CNc2nsc3ccccc23)cc1 [JMM003] | 257 | 263 | 1.03 |
| FC(F)(F)c1ccc(CNc2noc3ccccc23)cc1 [JMM039] | 20.4 | 61.7 | 3.03 |
| c1ccc2c(NCc3ccc4c(c3)OCCO4)nsc2c1 [JMM017] | 288 | 204 | 0.71 |
